pIC50: −log10 of the molar value. One block for each molecule: values may come before it.
Legend:
[1] = target: T1, Bromodomain-containing protein 9 (Homo sapiens) (UniProt Q9H8M2); test: Binding affinity of GST-tagged BRD9 domain (unknown origin) to histone H4Ac (1 to 21 residues) assessed as residual binding at 10 uM by alphascreen analysis relative to control
T1 sequence (whole entry): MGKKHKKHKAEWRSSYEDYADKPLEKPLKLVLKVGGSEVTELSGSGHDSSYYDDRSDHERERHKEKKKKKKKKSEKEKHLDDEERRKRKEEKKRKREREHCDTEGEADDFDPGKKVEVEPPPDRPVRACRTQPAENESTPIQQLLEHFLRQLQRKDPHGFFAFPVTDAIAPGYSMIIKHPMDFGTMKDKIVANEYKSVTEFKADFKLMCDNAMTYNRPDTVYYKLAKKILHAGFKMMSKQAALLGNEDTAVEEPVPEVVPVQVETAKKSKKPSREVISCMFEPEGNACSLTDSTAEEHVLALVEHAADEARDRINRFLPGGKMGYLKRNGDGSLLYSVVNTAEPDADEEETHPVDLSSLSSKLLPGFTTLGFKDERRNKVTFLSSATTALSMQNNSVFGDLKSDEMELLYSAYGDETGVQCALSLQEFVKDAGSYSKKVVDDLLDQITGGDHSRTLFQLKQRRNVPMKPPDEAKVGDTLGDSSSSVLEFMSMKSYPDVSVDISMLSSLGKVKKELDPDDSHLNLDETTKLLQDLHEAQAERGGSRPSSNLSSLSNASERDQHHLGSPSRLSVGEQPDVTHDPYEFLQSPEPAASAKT

[2] = target: T2, Bromodomain-containing protein 9 (Homo sapiens, UniProt Q9H8M2); test: Inhibition of BRD9 (unknown origin) by alpha screen analysis
T2 sequence (Q9H8M2 whole entry): T1 sequence (whole entry)

[3] = target: Bromodomain-containing protein 2 (Homo sapiens) (UniProt P25440); test: Binding affinity of recombinant His-tagged BRD2-BD1 (unknown origin) to histone H4Ac (1 to 21 residues) K5/8/12/Ac-Biotin-OH assessed as residual binding at 10 uM incubated for 30 mins by alphascreen analysis relative to control
Bromodomain-containing protein 2 (Homo sapiens), sequence (P25440 whole entry, looked up, the tested form may be a part): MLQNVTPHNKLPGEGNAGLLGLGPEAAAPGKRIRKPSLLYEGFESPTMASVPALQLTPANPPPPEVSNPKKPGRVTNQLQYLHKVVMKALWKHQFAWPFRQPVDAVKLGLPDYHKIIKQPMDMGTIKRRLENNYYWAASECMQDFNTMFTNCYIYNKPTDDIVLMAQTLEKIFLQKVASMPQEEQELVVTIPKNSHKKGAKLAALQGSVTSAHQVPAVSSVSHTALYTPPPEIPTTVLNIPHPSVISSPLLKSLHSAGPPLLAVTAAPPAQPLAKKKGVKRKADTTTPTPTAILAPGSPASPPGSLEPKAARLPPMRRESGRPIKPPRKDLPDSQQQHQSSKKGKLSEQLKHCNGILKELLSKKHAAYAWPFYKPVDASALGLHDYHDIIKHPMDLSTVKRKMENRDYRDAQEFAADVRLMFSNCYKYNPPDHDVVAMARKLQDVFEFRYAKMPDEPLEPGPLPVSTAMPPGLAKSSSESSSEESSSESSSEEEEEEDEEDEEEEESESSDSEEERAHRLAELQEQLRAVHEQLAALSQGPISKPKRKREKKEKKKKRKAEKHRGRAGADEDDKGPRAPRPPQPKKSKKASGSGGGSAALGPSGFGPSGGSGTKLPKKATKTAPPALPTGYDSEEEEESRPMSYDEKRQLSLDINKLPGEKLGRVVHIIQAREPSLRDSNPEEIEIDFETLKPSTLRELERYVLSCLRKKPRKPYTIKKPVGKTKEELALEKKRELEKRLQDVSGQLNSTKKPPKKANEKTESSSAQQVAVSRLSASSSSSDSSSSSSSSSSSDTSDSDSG

[4] = target: Bromodomain-containing protein 2 (Homo sapiens) (UniProt P25440); test: Binding affinity of recombinant His-tagged BRD2-BD2 (unknown origin) to histone H4Ac (1 to 21 residues) K5/8/12/Ac-Biotin-OH assessed as residual binding at 10 uM incubated for 30 mins by alphascreen analysis relative to control
[5] = target: Bromodomain-containing protein 3 (Homo sapiens) (UniProt Q15059); test: Binding affinity of recombinant His-tagged BRD3-BD1 (unknown origin) to histone H4Ac (1 to 21 residues) K5/8/12/Ac-Biotin-OH assessed as residual binding at 10 uM incubated for 30 mins by alphascreen analysis relative to control
Bromodomain-containing protein 3 (Homo sapiens), sequence (Q15059 2-726 limits assumed): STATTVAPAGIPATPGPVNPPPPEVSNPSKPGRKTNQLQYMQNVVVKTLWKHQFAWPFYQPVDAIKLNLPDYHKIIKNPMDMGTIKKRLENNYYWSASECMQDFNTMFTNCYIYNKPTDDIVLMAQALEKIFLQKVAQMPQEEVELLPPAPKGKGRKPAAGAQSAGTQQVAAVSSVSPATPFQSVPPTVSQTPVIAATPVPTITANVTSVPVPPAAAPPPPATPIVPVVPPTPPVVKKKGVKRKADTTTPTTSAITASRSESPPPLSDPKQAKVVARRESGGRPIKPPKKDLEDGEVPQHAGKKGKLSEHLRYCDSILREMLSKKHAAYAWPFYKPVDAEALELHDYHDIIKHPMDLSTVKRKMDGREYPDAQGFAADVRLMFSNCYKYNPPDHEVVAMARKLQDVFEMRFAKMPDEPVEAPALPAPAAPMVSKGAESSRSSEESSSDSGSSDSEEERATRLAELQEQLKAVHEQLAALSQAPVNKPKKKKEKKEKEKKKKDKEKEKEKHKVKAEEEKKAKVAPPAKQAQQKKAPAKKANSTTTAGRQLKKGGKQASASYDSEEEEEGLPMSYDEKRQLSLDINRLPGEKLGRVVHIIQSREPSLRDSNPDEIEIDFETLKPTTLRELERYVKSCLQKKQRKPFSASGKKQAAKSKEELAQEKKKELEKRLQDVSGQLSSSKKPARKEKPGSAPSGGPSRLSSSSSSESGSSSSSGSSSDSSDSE

[6] = target: Bromodomain-containing protein 3 (Homo sapiens) (UniProt Q15059); test: Binding affinity of recombinant His-tagged BRD3-BD2 (unknown origin) to histone H4Ac (1 to 21 residues) K5/8/12/Ac-Biotin-OH assessed as residual binding at 10 uM incubated for 30 mins by alphascreen analysis relative to control
[7] = target: Bromodomain-containing protein 4 (Homo sapiens) (UniProt O60885); test: Binding affinity of recombinant His-tagged BRD4-BD1 (unknown origin) to histone H4Ac (1 to 21 residues) K5/8/12/Ac-Biotin-OH assessed as residual binding at 10 uM incubated for 30 mins by alphascreen analysis relative to control
[8] = target: Bromodomain-containing protein 4 (Homo sapiens) (UniProt O60885); test: Binding affinity of recombinant His-tagged BRD4-BD2 (unknown origin) to histone H4Ac (1 to 21 residues) K5/8/12/Ac-Biotin-OH assessed as residual binding at 10 uM incubated for 30 mins by alphascreen analysis relative to control
[9] = target: Bromodomain testis-specific protein (Homo sapiens) (UniProt Q58F21); test: Binding affinity of recombinant His-tagged BRDT-BD1 (unknown origin) to histone H4Ac (1 to 21 residues) K5/8/12/Ac-Biotin-OH assessed as residual binding at 10 uM incubated for 30 mins by alphascreen analysis relative to control
[10] = target: Bromodomain adjacent to zinc finger domain protein 2B (Homo sapiens) (UniProt Q9UIF8); test: Binding affinity of recombinant His-tagged BAZ2B (unknown origin) to histone H3 (1 to 21 residues) K9/14Ac-Biotin-OH assessed as residual binding at 10 uM incubated for 30 mins by alphascreen analysis relative to control
Bromodomain adjacent to zinc finger domain protein 2B (Homo sapiens), sequence (Q9UIF8 whole entry, the tested form may be a part): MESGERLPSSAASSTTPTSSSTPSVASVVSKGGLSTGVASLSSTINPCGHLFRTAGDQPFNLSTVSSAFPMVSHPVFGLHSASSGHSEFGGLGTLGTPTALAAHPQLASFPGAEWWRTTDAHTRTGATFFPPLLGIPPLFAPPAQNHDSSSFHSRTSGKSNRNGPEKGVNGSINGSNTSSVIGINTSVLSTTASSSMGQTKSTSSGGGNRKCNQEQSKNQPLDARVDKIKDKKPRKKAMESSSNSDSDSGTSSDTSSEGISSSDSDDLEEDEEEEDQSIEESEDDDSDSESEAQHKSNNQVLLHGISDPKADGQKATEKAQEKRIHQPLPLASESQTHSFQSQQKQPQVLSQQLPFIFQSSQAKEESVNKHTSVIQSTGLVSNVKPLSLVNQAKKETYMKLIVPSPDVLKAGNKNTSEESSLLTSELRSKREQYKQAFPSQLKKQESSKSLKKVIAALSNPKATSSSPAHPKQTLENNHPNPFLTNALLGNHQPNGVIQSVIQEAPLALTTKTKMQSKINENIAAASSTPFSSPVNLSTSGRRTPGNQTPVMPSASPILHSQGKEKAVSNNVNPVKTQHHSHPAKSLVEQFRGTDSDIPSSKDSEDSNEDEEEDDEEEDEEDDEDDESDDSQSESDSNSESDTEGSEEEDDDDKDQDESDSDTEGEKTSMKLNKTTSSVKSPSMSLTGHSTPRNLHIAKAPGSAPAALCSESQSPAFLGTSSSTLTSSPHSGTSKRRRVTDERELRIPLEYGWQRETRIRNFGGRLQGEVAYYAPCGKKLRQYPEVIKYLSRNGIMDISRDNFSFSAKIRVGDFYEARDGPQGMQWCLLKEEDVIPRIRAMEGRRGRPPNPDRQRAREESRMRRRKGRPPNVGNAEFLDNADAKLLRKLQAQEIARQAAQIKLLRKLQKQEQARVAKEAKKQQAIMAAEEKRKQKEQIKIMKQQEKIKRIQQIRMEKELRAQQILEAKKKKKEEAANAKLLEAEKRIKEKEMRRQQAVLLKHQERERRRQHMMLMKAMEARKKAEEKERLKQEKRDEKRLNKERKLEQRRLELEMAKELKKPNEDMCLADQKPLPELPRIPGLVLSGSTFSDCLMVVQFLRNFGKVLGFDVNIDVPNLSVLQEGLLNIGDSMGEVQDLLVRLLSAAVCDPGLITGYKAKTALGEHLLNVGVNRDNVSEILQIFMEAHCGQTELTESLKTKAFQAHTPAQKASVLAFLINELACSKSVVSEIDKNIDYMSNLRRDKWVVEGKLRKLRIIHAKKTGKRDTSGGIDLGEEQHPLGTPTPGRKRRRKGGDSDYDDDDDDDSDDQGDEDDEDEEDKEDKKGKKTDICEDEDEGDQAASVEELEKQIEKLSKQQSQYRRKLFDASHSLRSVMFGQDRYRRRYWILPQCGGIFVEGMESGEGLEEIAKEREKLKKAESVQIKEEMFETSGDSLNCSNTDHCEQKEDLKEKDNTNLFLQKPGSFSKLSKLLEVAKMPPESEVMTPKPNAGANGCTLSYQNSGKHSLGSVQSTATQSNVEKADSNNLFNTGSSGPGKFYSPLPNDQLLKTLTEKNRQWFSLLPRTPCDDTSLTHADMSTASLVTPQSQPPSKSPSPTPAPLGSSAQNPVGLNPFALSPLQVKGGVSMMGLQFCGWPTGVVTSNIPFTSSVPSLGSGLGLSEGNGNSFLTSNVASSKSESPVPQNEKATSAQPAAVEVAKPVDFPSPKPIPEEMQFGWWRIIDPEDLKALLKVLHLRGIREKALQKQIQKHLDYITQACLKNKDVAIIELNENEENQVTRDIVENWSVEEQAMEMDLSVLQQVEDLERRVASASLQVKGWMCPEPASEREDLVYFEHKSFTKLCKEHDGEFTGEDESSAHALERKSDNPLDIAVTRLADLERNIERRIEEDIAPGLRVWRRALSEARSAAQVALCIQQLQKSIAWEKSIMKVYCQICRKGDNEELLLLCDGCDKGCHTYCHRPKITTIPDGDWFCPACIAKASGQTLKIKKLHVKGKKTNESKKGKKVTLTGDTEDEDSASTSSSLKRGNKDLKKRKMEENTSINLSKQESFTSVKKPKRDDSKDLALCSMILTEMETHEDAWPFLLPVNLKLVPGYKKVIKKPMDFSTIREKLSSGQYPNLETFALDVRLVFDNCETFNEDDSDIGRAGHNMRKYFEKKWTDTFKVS

[11] = target: CREB-binding protein (Homo sapiens) (UniProt Q92793); test: Binding affinity of recombinant His-tagged CREBBP (unknown origin) to histone H4Ac (1 to 21 residues) K5/8/12/Ac-Biotin-OH assessed as residual binding at 10 uM incubated for 30 mins by alphascreen analysis relative to control
Jurkat = test: Cytotoxicity against human Jurkat cells assessed as cell viability measured after 24 hrs by MTT assay; assay type: functional, cell-based
MCF7 = test: Cytotoxicity against human MCF7 cells assessed as cell viability measured after 24 hrs by MTT assay; assay type: functional, cell-based; conditions: MCF7, 24 h
A-375 = test: Cytotoxicity against human A-375 cells assessed as cell viability measured after 24 hrs by MTT assay; assay type: functional, cell-based; conditions: A-375, 24 h
Caco-2 = test: Cytotoxicity against human Caco-2 cells assessed as cell viability measured after 24 hrs by MTT assay; assay type: functional, cell-based; conditions: Caco-2, 24 h
HaCaT = test: Cytotoxicity against human HaCaT cells assessed as cell viability measured after 24 hrs by MTT assay; assay type: functional, cell-based
[12] = Cytotoxicity against human erythrocytes assessed as cell viability measured after 24 hrs by MTT assay; assay type: toxicity, cell-based, Erythrocyte

SMILES: CCn1nc(C)n(-c2ccc3c(c2)OCO3)c1=O
- Activity [1]: 35.6%
- pIC50 [2]: 5.26
- Activity [3]: > 100%
- Activity [4]: > 100%
- Activity [5]: 74.8%
- Activity [6]: 99.9%
- Activity [7]: 96.2%
- Activity [8]: 99.2%
- Activity [9]: > 100%
- Activity [10]: 97.5%
- Activity [11]: > 100%
- pIC50 (Jurkat): < 3.30
- pIC50 (MCF7): < 3.30
- pIC50 (A-375): < 3.30
- pIC50 (Caco-2): < 3.30
- pIC50 (HaCaT): < 3.30
- IC50 at 24 h [12]: > 500 µM

SMILES: CCc1nn(CC)c(=O)n1-c1ccc(F)c(Cl)c1
- Activity [1]: 86.6%

SMILES: CCn1nc(C)n(-c2ccc(F)c(Cl)c2)c1=O
- Activity [1]: 41.2%
- pIC50 [2]: 5.40
- Activity [3]: 98.2%
- Activity [4]: > 100%
- Activity [5]: > 100%
- Activity [6]: 93.3%
- Activity [7]: 99%
- Activity [8]: > 100%
- Activity [9]: 98.3%
- Activity [10]: > 100%
- Activity [11]: > 100%
- pIC50 (Jurkat): < 3.30
- pIC50 (MCF7): < 3.30
- pIC50 (A-375): 3.35
- pIC50 (Caco-2): < 3.30
- pIC50 (HaCaT): < 3.30
- IC50 at 24 h [12]: > 500 µM

SMILES: CCc1nn(C)c(=O)n1-c1cccc(C(F)(F)F)c1
- Activity [1]: 76.5%

SMILES: CCc1n[nH]c(=O)n1-c1ccc(OC)c(OC)c1
- Activity [1]: 96.9%

SMILES: Cc1n[nH]c(=O)n1-c1ccc(F)c(C(F)(F)F)c1
- Activity [1]: 97.8%

SMILES: CCc1nn(CC)c(=O)n1-c1cccc(C(F)(F)F)c1
- Activity [1]: 39.4%
- pIC50 [2]: 5.60
- Activity [3]: 99%
- Activity [4]: > 100%
- Activity [5]: > 100%
- Activity [6]: 97.4%
- Activity [7]: 97.7%
- Activity [8]: > 100%
- Activity [9]: 98.3%
- Activity [10]: > 100%
- Activity [11]: > 100%
- pIC50 (Jurkat): 3.57
- pIC50 (MCF7): 3.31
- pIC50 (A-375): < 3.30
- pIC50 (Caco-2): < 3.30
- pIC50 (HaCaT): < 3.30
- IC50 at 24 h [12]: > 500 µM

SMILES: CCc1n[nH]c(=O)n1-c1cccc(C(F)(F)F)c1
- Activity [1]: 96.1%

SMILES: CCc1n[nH]c(=O)n1-c1ccc(C)c(Cl)c1
- Activity [1]: 97.5%

SMILES: CCc1nn(C)c(=O)n1-c1ccc(F)c(Cl)c1
- Activity [1]: 24.3%
- pIC50 [2]: 5.73
- Activity [3]: > 100%
- Activity [4]: > 100%
- Activity [5]: > 100%
- Activity [6]: 98.3%
- Activity [7]: 99.2%
- Activity [8]: > 100%
- Activity [9]: 98.2%
- Activity [10]: > 100%
- Activity [11]: > 100%
- pIC50 (Jurkat): 3.65
- pIC50 (MCF7): < 3.30
- pIC50 (A-375): 3.30
- pIC50 (Caco-2): < 3.30
- pIC50 (HaCaT): < 3.30
- IC50 at 24 h [12]: > 500 µM

SMILES: Cc1nn(C)c(=O)n1-c1ccc2c(c1)OCO2
- Activity [1]: 58.8%
- pIC50 [2]: 4.95
- Activity [3]: > 100%
- Activity [4]: 94.4%
- Activity [5]: 97.3%
- Activity [6]: 94.9%
- Activity [7]: > 100%
- Activity [8]: 99.3%
- Activity [9]: 92.5%
- Activity [10]: 92.8%
- Activity [11]: > 100%
- pIC50 (Jurkat): 3.54
- pIC50 (MCF7): 3.40
- pIC50 (A-375): 3.40
- pIC50 (Caco-2): 3.43
- pIC50 (HaCaT): < 3.30
- IC50 at 24 h [12]: > 500 µM

SMILES: Cc1nn(C)c(=O)n1C1CCCCC1
- Activity [1]: 77.9%

SMILES: CCc1nn(CC)c(=O)n1-c1ccc2c(c1)OCO2
- Activity [1]: 91.2%

SMILES: CCc1n[nH]c(=O)n1-c1ccc2c(c1)OCO2
- Activity [1]: 84.6%

SMILES: CCc1n[nH]c(=O)n1-c1ccc(F)c(C)c1
- Activity [1]: 94.9%

SMILES: CCc1nn(C)c(=O)n1C1CCCCC1
- Activity [1]: 64.3%

SMILES: CCc1n[nH]c(=O)n1-c1ccc(Cl)c(F)c1
- Activity [1]: 91.8%

Second part, led by results:

- Activity [1]: > 100%
SMILES: Cc1ccc(-n2c(C)n[nH]c2=O)cc1

- Activity [1]: 97.2%
SMILES: CCc1n[nH]c(=O)n1-c1ccc(C)c(C)c1

- Activity [1]: 85.1%
SMILES: CCc1nn(C)c(=O)n1-c1ccc(C)c(C)c1

- Activity [1]: 86.7%
SMILES: Cc1cccc(-n2c(C)nn(C)c2=O)c1

- Activity [1]: 85.3%
SMILES: Cc1nn(C)c(=O)n1-c1ccc(F)c(C(F)(F)F)c1

- Activity [1]: 95.7%
SMILES: Cc1nn(C)c(=O)n1-c1ccc(C(C)(C)C)cc1

- Activity [1]: 97.1%
SMILES: CCc1ccc(-n2c(CC)n[nH]c2=O)cc1

- Activity [1]: > 100%
SMILES: Cc1cccc(-n2c(C)n[nH]c2=O)c1

- Activity [1]: > 100%
SMILES: Cc1cc(-n2c(C)n[nH]c2=O)ccc1F

- Activity [1]: 73.6%
SMILES: COc1ccc(-n2c(C)nnc2O)cc1OC

- Activity [1]: 28.1%
- pIC50 [2]: 6.46
- Activity [3]: 96.5%
- Activity [4]: > 100%
- Activity [5]: > 100%
- Activity [6]: > 100%
- Activity [7]: > 100%
- Activity [8]: 94.7%
- Activity [9]: > 100%
- Activity [10]: > 100%
- Activity [11]: 96.3%
SMILES: COc1ccc(-n2c(C)nn(C)c2=O)cc1OC
- pIC50 (Jurkat): 3.96
- pIC50 (MCF7): < 3.30
- pIC50 (A-375): 3.35
- pIC50 (Caco-2): 3.52
- pIC50 (HaCaT): < 3.30
- IC50 at 24 h [12]: > 500 µM

- Activity [1]: 38.1%
- pIC50 [2]: 5.38
- Activity [3]: > 100%
- Activity [4]: 96.7%
- Activity [5]: 97.3%
- Activity [6]: 97.7%
- Activity [7]: > 100%
- Activity [8]: 89.4%
- Activity [9]: 95.6%
- Activity [10]: > 100%
- Activity [11]: > 100%
SMILES: CCc1nn(C)c(=O)n1-c1ccc(OC)c(OC)c1
- pIC50 (Jurkat): 3.38
- pIC50 (MCF7): < 3.30
- pIC50 (A-375): 3.32
- pIC50 (Caco-2): < 3.30
- pIC50 (HaCaT): < 3.30
- IC50 at 24 h [12]: > 500 µM

- Activity [1]: 50.8%
- pIC50 [2]: 5.12
- Activity [3]: > 100%
- Activity [4]: > 100%
- Activity [5]: 97.8%
- Activity [6]: > 100%
- Activity [7]: 99.2%
- Activity [8]: > 100%
- Activity [9]: 97.9%
- Activity [10]: > 100%
- Activity [11]: > 100%
SMILES: CCn1nc(C)n(-c2ccc(OC)c(OC)c2)c1=O
- pIC50 (Jurkat): 3.50
- pIC50 (MCF7): 3.44
- pIC50 (A-375): 3.40
- pIC50 (Caco-2): 3.52
- pIC50 (HaCaT): < 3.30
- IC50 at 24 h [12]: > 500 µM

- Activity [1]: > 100%
SMILES: CCc1nn(CC)c(=O)n1-c1ccc(OC)c(OC)c1

- Activity [1]: > 100%
SMILES: Cc1nnc(O)n1-c1ccc(C(C)(C)C)cc1

From ChEMBL document CHEMBL5331094, “Identification of 2,4,5-trisubstituted-2,4-dihydro-3H-1,2,4-triazol-3-one-based small molecules as selective BRD9 binders” (Eur J Med Chem, 2023)
